The text below walks through data of patent US8623921B2, “Bis(thio-hydrazide amide) formulation” (Synta Pharmaceuticals Corp., priority 2005, dated 2014).

Molecules are shown by their SMILES. “Also recorded” adds a separate entry of the source.

Series [1] in a line: DSC analysis of glass transition temperatures (Tg, Tg′). The format is physicochemical. To be noted: compound itself. The protocol:
Tg′ and Tg were evaluated using a PYRIS Diamond DSC. Samples for Tg′ determination were prepared by loading 50 μL of sample into a 500 μL aluminum pan, then sealing the pan using the sealing press. The thermal program used to identify Tg′ (without annealing) was: • 1. Ramp from 20° C. to −50° C. at 10° C./min • 2. Hold at −50° C. for 4 minutes • 3. Ramp from −50° C. to 20° C. at 10° C./min The thermal program used to identify Tg′ that included an annealing step was: • 1. Ramp from 20° C. to −45° C. at 10° C./min • 2. Hold at −45° C. for 10 minutes • 3. Ramp from −45° C. to −8° C. at 10° C./min • 4. Hold at −8° C. for 1 hour • 5. Ramp from −8° C. to −70° C. at 10° C./min • 6. Hold at −70° C. for 5 minutes • 7. Ramp from −70° C. to 20° C. at 10° C./min Tg′ was taken to be the midpoint of the transition.
Freeze-dried samples used in the determination of […] ramped the temperature from 25° C. to 150° C. at 10° C./min.
For orientation: Differential scanning calorimetry records heat flow against a reference as temperature is scanned.

Series [2] can be described thus: Stability during freeze-drying by reverse-phase HPLC. The format is physicochemical. The method, then:
Reverse phase HPLC was used to quantify the potency and purity of; disodium 2-(N′-methyl-N′-thiobenzoyl-hydrazinocarbonyl)-1-(methyl-thiobenzoyl-hydrazono)-ethanolate following freeze-drying. The analysis was performed as detailed in the analytical method.

As to `CN(/N=C(\O)C/C(O)=N/N(C)C(=S)c1ccccc1)C(=S)c1ccccc1` [Structural Formula, (II)], the “Tg (glass transition temperature)” value in series [1] is −44.7 °C.

Molecule `CN(NC(=O)CC(=O)NN(C)C(=S)c1ccccc1)C(=S)c1ccccc1` [disodium 2-(N′-methyl-N′-thiobenzoyl-hydrazinocarbonyl)-1-(methyl-thiobenzoyl-hydrazono)-ethanolate] had a main peak purity in series [2] (RP-HPLC after freeze-drying, on average) of 97%. Further, the stability during freeze-drying entry in series [2] (reverse-phase HPLC, all freeze-drying cycles tested) was “stable through all of the freeze-drying cycles tested, as no degradation products were detected; also recorded: did not adversely affect the stability”.
